Reference: ChEMBL document CHEMBL3621193, “New arylalkanones from Horsfieldia macrobotrys, effective antidiabetic agents concomitantly inhibiting α-glucosidase and free radicals” (Bioorg Med Chem Lett, 2015)

Columns and labels:
[1] = Inhibition of baker's yeast alpha-glucosidase type-1 using p-nitrophenyl-alpha-D-glucopyranoside as substrate preincubated for 30 mins followed by substrate addition measured after 20 mins by microplate reader analysis; set-up: species or system Saccharomyces cerevisiae
[2] = target: T1, Sucrase-isomaltase, intestinal (Rattus norvegicus, UniProt P23739); test: Inhibition of rat intestinal Sucrase using sucrose as substrate assessed as glucose release after 40 mins by glucose oxidase method
T1 sequence (P23739 1-1013 limits assumed): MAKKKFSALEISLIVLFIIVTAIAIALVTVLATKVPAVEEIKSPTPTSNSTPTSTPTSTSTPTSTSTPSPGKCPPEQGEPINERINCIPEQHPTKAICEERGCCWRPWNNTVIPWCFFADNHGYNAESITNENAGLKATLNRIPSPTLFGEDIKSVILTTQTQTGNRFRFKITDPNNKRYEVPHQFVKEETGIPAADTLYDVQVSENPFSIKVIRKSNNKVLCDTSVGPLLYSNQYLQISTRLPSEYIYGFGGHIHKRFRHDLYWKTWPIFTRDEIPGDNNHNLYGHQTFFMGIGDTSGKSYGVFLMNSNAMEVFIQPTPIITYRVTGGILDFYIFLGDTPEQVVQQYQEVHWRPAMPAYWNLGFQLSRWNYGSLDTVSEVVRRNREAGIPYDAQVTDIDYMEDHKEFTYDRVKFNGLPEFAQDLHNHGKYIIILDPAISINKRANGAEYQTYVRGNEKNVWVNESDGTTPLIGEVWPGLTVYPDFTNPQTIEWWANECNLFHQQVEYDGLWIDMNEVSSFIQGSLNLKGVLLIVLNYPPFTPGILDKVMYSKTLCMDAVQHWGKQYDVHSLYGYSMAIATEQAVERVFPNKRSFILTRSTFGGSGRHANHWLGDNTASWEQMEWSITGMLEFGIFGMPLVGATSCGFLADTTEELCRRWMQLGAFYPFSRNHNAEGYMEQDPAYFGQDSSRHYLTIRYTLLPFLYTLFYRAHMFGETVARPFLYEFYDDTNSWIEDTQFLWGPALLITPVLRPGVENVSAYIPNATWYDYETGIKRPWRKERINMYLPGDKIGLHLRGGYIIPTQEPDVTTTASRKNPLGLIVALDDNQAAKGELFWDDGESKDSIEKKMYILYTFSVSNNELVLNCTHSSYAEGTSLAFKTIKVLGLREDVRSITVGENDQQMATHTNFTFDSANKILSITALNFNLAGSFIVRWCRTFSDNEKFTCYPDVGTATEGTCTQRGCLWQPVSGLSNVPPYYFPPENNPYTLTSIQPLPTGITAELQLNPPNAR
T1 sequence (P23739 1014-1841 limits assumed): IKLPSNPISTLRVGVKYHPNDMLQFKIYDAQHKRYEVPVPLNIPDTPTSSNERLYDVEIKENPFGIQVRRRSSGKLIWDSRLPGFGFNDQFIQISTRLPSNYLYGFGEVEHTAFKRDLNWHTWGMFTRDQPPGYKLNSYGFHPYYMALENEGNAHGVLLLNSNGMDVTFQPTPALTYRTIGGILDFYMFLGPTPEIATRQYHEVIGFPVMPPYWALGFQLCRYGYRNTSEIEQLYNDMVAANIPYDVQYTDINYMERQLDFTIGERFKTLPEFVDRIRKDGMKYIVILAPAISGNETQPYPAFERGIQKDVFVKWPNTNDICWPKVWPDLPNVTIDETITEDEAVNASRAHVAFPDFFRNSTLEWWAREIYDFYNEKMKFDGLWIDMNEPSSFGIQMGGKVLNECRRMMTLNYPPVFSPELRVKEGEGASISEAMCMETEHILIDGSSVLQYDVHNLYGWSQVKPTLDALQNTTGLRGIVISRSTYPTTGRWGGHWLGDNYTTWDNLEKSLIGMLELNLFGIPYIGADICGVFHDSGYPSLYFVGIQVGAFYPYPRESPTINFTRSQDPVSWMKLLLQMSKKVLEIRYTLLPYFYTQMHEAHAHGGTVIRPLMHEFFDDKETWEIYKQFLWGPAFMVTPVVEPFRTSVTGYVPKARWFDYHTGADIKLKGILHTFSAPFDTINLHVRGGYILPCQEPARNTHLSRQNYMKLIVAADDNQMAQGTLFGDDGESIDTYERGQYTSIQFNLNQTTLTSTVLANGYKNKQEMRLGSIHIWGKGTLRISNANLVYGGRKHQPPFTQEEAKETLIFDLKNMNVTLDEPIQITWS

[3] = Antioxidant activity assessed as DPPH radical scavenging activity incubated for 30 mins in dark condition by spectrophotometric analysis; type: physicochemical; settings: 0.5 h
[4] = target: T1, Sucrase-isomaltase, intestinal; test: Competitive inhibition of rat intestinal Sucrase using sucrose as substrate assessed as glucose release after 40 mins by Lineweaver-Burk plot analysis
[5] = target: T1, Sucrase-isomaltase, intestinal; test: Non-competitive inhibition of rat intestinal Sucrase using sucrose as substrate assessed as glucose release after 40 mins by Lineweaver-Burk plot analysis

Structure (SMILES) | IC50 ([1]; read-out: IC50) [µM] | IC50 ([2]; read-out: IC50) [µM] | SC50 [3] | Ki [4] [µM] | Ki [5] [µM] | IC50 [2] | IC50 [1]
C[C@H]1O[C@H](O[C@H]2[C@H](O)[C@@H](O)[C@@H](O[C@H]3[C@H](O)[C@@H](O)C(O)O[C@@H]3CO)O[C@@H]2CO)[C@H](O)[C@@H](O)[C@@H]1N[C@H]1C=C(CO)[C@@H](O)[C@H](O)[C@H]1O (stereo partly drawn) [ACARBOSE] | 103 |  | Not Active |  |  |  | 
O=C1O[C@H]([C@@H](O)CO)C(O)=C1O [ASCORBIC ACID] |  |  | 2.45 mM |  |  | Not Active | Not Active

Further lines, results first:

IC50 ([1]; read-out: IC50) [µM] | IC50 ([2]; read-out: IC50) [µM] | SC50 [3] | Ki [4] [µM] | Ki [5] [µM] | IC50 [2] | IC50 [1] | Structure (SMILES)
22.6 | 94.9 | 1.6 mM | 1090 | 540 |  |  | O=C(CCCCCCC[C@H](O)c1ccccc1)c1c(O)cc(O)cc1O
5.65 | 47.4 | 0.43 mM | 3070 | 380 |  |  | O=C(CCCCCCC[C@H](O)c1ccccc1)c1c(O)cc(O)c(C(CCc2ccccc2)c2ccc(O)cc2O)c1O (stereo partly drawn)
529 |  | 6.76 mM |  |  | Not Active |  | O=C1C[C@@H](c2ccccc2)Oc2c1c(O)cc(O)c2[C@@H]1O[C@H](CO)[C@@H](O)[C@H](O)[C@H]1O
